Activity calls are given as the source filed them. No cut-off for these calls is given here.
What was measured:
[1] = Solubility of the compound at 10 uM; format: physicochemical
[2] = Solubility of the compound at 1 uM; format: physicochemical
PC-12 [3] = test: Cytotoxicity against […] cells at 10 uM after 24 hrs by MTT assay; format: cell-based; conditions: rat, pc-12, 24 h
PC-12 [4] = test: Neuroprotective activity against Abeta25-35-induced […] cells assessed as cell viability at 10 uM preincubated for 2 hrs prior Abeta25-35 challenge measured after 24 hrs by MTT assay; format: functional; conditions: Rattus norvegicus, read-out: Activity
SH-SY5Y [5] = test: Neuroprotective activity against oxygen-glucose deprivation-induced human SH-SY5Y cells assessed as cell viability at 5 uM preincubated for 2 hrs prior oxygen-glucose deprivation challenge for 1 hr measured after 24 hrs incubation under normal condition by MTT assay; format: functional; conditions: read-out: Activity
PC-12 [6] = test: Neuroprotective activity against Abeta25-35-induced […] cells assessed as cell viability at 1 uM preincubated for 2 hrs prior Abeta25-35 challenge measured after 24 hrs by MTT assay; format: functional; conditions: Rattus norvegicus; for viability at 1 µM: read-out: Activity
SH-SY5Y [7] = test: Neuroprotective activity against oxygen-glucose deprivation-induced human SH-SY5Y cells assessed as cell viability at 10 uM preincubated for 2 hrs prior oxygen-glucose deprivation challenge for 1 hr measured after 24 hrs incubation under normal condition by MTT assay; format: functional; conditions: read-out: Activity
PC-12 [8] = test: Neuroprotective activity against H2O2-induced […] cells assessed as cell viability at 10 uM preincubated for 2 hrs prior H2O2 challenge measured after 24 hrs by MTT assay; format: functional; conditions: Rattus norvegicus, read-out: Activity
PC-12 [9] = test: Cytotoxicity against […] cells at 1 uM after 24 hrs by MTT assay; format: cell-based; conditions: rat, pc-12, 24 h

solubility [1] | solubility [2] | Compound | Activity (PC-12 [3]) | viability at 10 µM (PC-12 [4]) | Activity (PC-12 [6]) | viability at 1 µM (PC-12 [6]) | Activity (PC-12 [9]) | also measured
Insoluble | Insoluble | C[C@]12CC[C@H]3[C@@H](CC=C4C[C@@H](O)CC[C@@]43C)[C@@H]1CC[C@@H]2C(=O)/C=C/c1ccc(Br)cc1 | – | – | – | – | – | –
– | – | CCOc1ccccc1/C=C/C(=O)[C@H]1CC[C@H]2[C@@H]3C[C@@H]4O[C@@]45C[C@@H](O)CC[C@]5(C)[C@H]3CC[C@]12C | Toxic | 49.5% | inactive | – | – | viability at 5 µM (SH-SY5Y [5]): 98.8%
– | – | COc1ccccc1/C=C/C(=O)[C@H]1CC[C@H]2[C@@H]3C[C@@H]4O[C@@]45C[C@@H](O)CC[C@]5(C)[C@H]3CC[C@]12C | – | 73.7% | inactive | – | – | viability at 10 µM (SH-SY5Y [7]): 98.7%
– | – | COc1ccccc1/C=C/C(=O)[C@H]1CC[C@H]2[C@@H]3CC=C4C[C@@H](O)CC[C@]4(C)[C@H]3CC[C@]12C | – | 74.5% | – | 64.1% | – | viability at 10 µM (PC-12 [8]): 83.7%
– | – | COc1cccc(/C=C/C(=O)[C@H]2CC[C@H]3[C@@H]4CC=C5C[C@@H](O)CC[C@]5(C)[C@H]4CC[C@]23C)c1 | Toxic | 44% | – | 50.3% | Toxic | –
Insoluble | Insoluble | C[C@]12CC[C@H]3[C@@H](CC=C4C[C@@H](O)CC[C@@]43C)[C@@H]1CC[C@@H]2C(=O)/C=C/c1ccc(C#N)cc1 | – | – | – | – | – | –
– | – | Cc1ccccc1/C=C/C(=O)[C@H]1CC[C@H]2[C@@H]3CC=C4C[C@@H](O)CC[C@]4(C)[C@H]3CC[C@]12C | Toxic | 50.4% | inactive | – | – | viability at 5 µM (SH-SY5Y [5]): 84.8%
– | – | C[C@]12CC[C@H]3[C@@H](CC=C4C[C@@H](O)CC[C@@]43C)[C@@H]1CC[C@@H]2C(=O)/C=C/c1ccccc1F | Toxic | 38.3% | – | 53.1% | Toxic | –
– | – | C[C@]12CC[C@H]3[C@@H](CC=C4C[C@@H](O)CC[C@@]43C)[C@@H]1CC[C@@H]2C(=O)/C=C/c1cccc([N+](=O)[O-])c1 | Toxic | 37.8% | – | 51.2% | Toxic | –

Compound | solubility [1] | solubility [2] | Activity (PC-12 [3]) | viability at 10 µM (PC-12 [4]) | Activity (PC-12 [6]) | viability at 1 µM (PC-12 [6]) | Activity (PC-12 [9]) | also measured
C[C@]12CC[C@H]3[C@@H](CC=C4C[C@@H](O)CC[C@@]43C)[C@@H]1CC[C@@H]2C(=O)/C=C/c1ccc(Cl)cc1 | Insoluble | Insoluble | – | – | – | – | – | –
